Patent US8293211B2, “CB1 receptor antagonists and uses thereof” (MAKScientific, LLC, priority 2007, dated 2012)
Where two headings read alike, the source gives them in different places.

What was measured:
[1] = target: CB1 receptor (Rattus norvegicus, UniProt P20272); test: Thermoregulation assay: hypothermia induced by the CB1 agonist CP55,940; type: in vivo; set-up: antagonized CB1 receptors in vivo; from tissue; host or cells: whole animal, male SD rats; conditions: 5 mg kg-1 pre-treatment 45 min before CP55,940 0.3 mg kg-1; compared with vehicle
CB1 receptor, sequence (P20272 whole entry): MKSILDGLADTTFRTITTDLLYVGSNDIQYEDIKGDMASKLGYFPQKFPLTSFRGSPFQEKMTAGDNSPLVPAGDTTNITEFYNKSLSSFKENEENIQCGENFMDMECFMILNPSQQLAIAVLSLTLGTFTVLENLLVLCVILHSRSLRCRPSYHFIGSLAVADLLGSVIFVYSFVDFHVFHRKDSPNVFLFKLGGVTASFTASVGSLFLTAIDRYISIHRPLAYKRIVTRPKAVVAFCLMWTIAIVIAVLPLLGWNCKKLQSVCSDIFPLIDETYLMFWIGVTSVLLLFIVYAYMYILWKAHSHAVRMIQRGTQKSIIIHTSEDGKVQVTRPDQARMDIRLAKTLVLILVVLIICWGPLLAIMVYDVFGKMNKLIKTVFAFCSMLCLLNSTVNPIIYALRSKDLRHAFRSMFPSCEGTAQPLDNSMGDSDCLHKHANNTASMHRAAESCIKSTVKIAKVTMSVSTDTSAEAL
Procedure: Briefly, silicone coated temperature data loggers (SubCue Inc, Calgary, Canada) were surgically implanted into the abdominal cavity of male SD (450-500 g) rats under isoflurane anesthesia (4% induction; 2-2.5% maintenance). Rats were allowed to recover for 3 days before being acclimatized to testing and handling procedures for an additional seven days. Core body temperature readings were sampled every 5 min for 300 min during the course of each experiment.

[2] = system: Male Sprague-Dawley (SD) rats; test: Food intake studies (experiments A, B, C), food intake and body weight; type: in vivo, rat; conditions: for food intake, difference to rats treated with Compound 3: 5 mg kg-1 each
Procedure: All experimental protocols were approved by internal guidelines. Different concentrations of drugs were administered I.P. in a 1 ml kg-1 (milliliters per kilogram) volume, except M6G, which was given s.c. (subcutaneously) in a 0.1 ml kg-1 volume.
Food and water were presented in inverted glass bottles that attached to the outside of the cage. Food was available for 18 h each day starting at 16:00 h (12 h light-dark cycle; lights off 16:00 h).
Intake measurements were taken at 1.5 h, 3 h, 5 h, and 18 h after food became available.
Rats were habituated to testing and handling procedures as before. […] Food intake and body weight were monitored daily.
On the day of the experiment each rat received only a single injection, 30 min later food was made available as described in experiment 1. Food intake was measured 0.5, 1.5, 3, 5, and 18 h after administration. Food intake and body weight were monitored daily for five days after the experiment to assess the sustained effect of a single administration of each compound.

[3] = target: T1, hCB1 (Homo sapiens, UniProt P21554); test: Forskolin-stimulated cAMP assay; type: cell-based; conditions: HEK293 cells transfected with human CB1 receptors
T1 construct: expressed in transfected cells; host or cells: HEK293
T1 sequence (P21554 whole entry): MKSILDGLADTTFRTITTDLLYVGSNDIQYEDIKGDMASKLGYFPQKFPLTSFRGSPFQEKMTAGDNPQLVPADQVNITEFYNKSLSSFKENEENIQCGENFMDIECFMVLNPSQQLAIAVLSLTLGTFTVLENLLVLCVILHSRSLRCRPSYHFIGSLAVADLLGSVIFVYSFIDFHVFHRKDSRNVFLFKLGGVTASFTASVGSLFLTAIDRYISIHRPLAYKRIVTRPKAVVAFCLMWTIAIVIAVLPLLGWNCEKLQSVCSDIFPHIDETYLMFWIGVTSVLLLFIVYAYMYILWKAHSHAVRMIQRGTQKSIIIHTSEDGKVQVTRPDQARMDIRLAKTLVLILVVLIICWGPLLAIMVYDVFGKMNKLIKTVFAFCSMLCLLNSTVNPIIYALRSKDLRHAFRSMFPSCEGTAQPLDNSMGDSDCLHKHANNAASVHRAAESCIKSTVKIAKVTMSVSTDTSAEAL
Procedure: Intracellular cAMP levels were measured with a competitive protein-binding assay using intact HEK293 cells expressing hCB1 or hCB2 and a cAMP immunoassay kit from Sigma (St. Louis, Mo.). In short, forskolin stimulated cells were incubated with various concentrations of compound, cAMP anti-body and cAMP conjugate for 2 hours at ambient temperature. The reaction was stopped by emptying the wells followed by the addition of p-NPP substrate and incubation for 1 hour. […] The results were expressed as percent inhibition of forskolin-stimulated cAMP accumulation and EC50 curves were generated with the use of GraphPad Prism software.

[4] = system: Rats; test: Operant lever pressing on FR5 schedules; type: in vivo, rat; conditions: for ED50: Rattus norvegicus
Procedure: Following the initial training period, rats (n=8 each group) were injected with drug and then tested once a week on Thursdays. For experiments 1 and 2, Compound 3 or Compound 2, respectively were injected IP at doses of 1.0, 2.0, 4.0, or 8.0 mg/kg or vehicle. Pretreatment time for these two experiments was 30 min. For experiments 3 and 4, rats were given drug or vehicle orally 1 hour before testing. In experiment 3, rats were given vehicle or 8.0, 16.0, or 32.0 mg/kg Compound 3. In experiment 4, rats received vehicle or Compound 2 at doses of 4.0, 8.0, or 16.0 mg/kg. All doses were given in a randomized order using a repeated measures design.

Compound | hypothermic effect of CP55,940 [1] | acute effect on food intake compared with vehicle ([2]; experiment A, 5 mg kg-1 I.P. single dose) | food intake, difference to rats treated with Compound 3 ([2]; experiment A, 5 h) [g] | food intake, difference to rats treated with Compound 3 ([2]; experiment A, 18 h) [g] | early effect on food intake at each time point ([2]; experiment C, 5 mg kg-1 single dose) | weight gain for several days after the experiment ([2]; experiment C, single administration (Compound 1 5 mg kg-1; Compound 3 10, 20 mg kg-1)) | effect on forskolin stimulated cAMP production [3] | suppression of FR5 responding compared to vehicle ([4]; IP 1.0, 2.0, 4.0, 8.0 mg/kg) | ED50 ([4]; IP, pretreatment 30 min, read-out: ED50 for the effect on FR5 responding) [mg/kg] | ED50 ([4]; oral, 1 hour before testing, read-out: ED50 for suppression of lever pressing on FR5) [mg/kg] | change in lever pressing on FR5 compared to vehicle ([4]; oral, 1 hour before testing (Compound 3 8.0-32.0 mg/kg; Compound 2 4.0-16.0 mg/kg))
Cc1c(C(=O)NN2CCCCC2)nn(-c2ccc(Cl)cc2Cl)c1-c1ccc(I)cc1 [Compound 1, N-(Piperidin-1-yl)-5-(4-iodophenyl)-1-(2,4-dichlorophenyl)-4-methyl-1H-pyrazole-3-carboxamide, reference compound] | significantly attenuated | significantly reduced food intake | -15.5 | -26.1 | significantly reduced food intake | significantly reduced | – | – | – | – | –
Cc1c(C(=O)NN2CCOCC2)nn(-c2ccc(Cl)cc2Cl)c1-c1ccc(C#CCCC#N)cc1 [Compound 2] | – | – | – | – | – | – | no effect | significantly suppressed | 0.576 | 1.49 | dose-dependent decrease
